Data: article PMC7482845, “G10 is a direct activator of human STING” (PLoS ONE, 2020)

Tests used:
[1] = molecular target: T1, R232 variant of human STING (Homo sapiens, UniProt Q86WV6, H232R); test: Luciferase (ISRE.ISG reporter) assay in HEK293T cells stably expressing R232 hSTING; format: cell-based; conditions: for EC50: HEK293T cells expressing R232 hSTING, luciferase reporter, read-out: HEK.R232 EC50; for activity against R232 STING, in words: HEK.R232 cellular assay
T1 construct: the ER fraction from R232.STING transfected HEK293T cells which contained full length STING
T1 sequence (Q86WV6 whole entry H232R): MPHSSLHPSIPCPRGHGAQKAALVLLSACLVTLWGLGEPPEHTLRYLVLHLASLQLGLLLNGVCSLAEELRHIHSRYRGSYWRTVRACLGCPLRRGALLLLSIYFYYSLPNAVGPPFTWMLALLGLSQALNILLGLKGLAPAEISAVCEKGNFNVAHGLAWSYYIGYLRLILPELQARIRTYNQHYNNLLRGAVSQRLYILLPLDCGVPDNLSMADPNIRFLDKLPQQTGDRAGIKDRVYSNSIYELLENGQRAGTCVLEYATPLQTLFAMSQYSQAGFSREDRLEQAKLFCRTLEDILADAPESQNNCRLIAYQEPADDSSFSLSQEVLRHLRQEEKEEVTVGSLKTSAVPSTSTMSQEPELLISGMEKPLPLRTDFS
Excerpt: (§1) • a) Stable STING expressing cells. Stable HEK293T STING-expressing cell lines were generated using plasmids purchased from Invivogen, CA, USA, that contain STING cDNA cloned into the pUNO-1 vector under the hEF1-HTLV promoter as well as the Blasticidin selection cassette. The human STING plasmids corresponding to the R232, H232 and HAQ variants were directly procured from Invivogen while the AQ and Q variants were created by mismatch PCR using cDNA from HAQ.STING and R232.STING variants respectively. These vectors were individually transfected into HEK293T cells using Lipofectamine (Invitrogen) and transfected cells were expanded under Blasticidin selection. These cells were further subjected to clonal selection using the limiting dilution method to obtain clonally pure populations of HEK293T cells expressing each of the five human STING variants. Clones with minimal ligand independent activation of STING were chosen for cellular experiments. • b) N-His R232.hSTING HEK293T cells. HEK293T cells stably expressing N-His R232.hSTING were generated by the following described method. N-His R232.hSTING.pcDNA Myc B plasmid was transfected into HEK293T cells using Lipofectamine reagent (Invitrogen) and the transfected cells were selected under Hygromycin. Stably STING expressing HEK293T cells thus selected were further subjected to single cell clonal selection using the limiting dilution method to obtain a clonally pure population of HEK293T cells expressing the human R232 STING variant.
[…] clonally selected HEK293T-hSTING-Luciferase cells or control HEK293T-Luciferase cells were seeded in 384-well plates in growth medium and stimulated with known STING agonists or novel compounds. […]

[2] = molecular target: T2, HAQ STING (THP-1 cells) (Homo sapiens, UniProt Q86WV6, G230A/R293Q/R71H); test: THP1 cellular assay (EC50); format: cell-based; conditions: for THP-1 EC50 / EC50: THP-1 cells (HAQ STING); for activation of THP1 cells, in words: THP1 cellular assay
T2 construct: THP1 cells constitutively express the HAQ variant of human STING; host or cells: THP-1
T2 sequence (Q86WV6 whole entry R71H/G230A/R293Q): as the sequence (Q86WV6 whole entry H232R) above, with R71H, G230A, R232H, R293Q counted along it

[3] = test system: human STING; design: method as in PMID 23585680; conditions: any variant of human STING; cited from earlier work
[4] = test system: Human STING variants (HEK293T cells); test: Phosphorylation of STING variants overexpressed in HEK293T cells (Compound 8); format: cell-based; conditions: HEK293T cells (S5 Fig)
Description: 5 x 10^5 cells were seeded in 24-well plates in 500 μl growth medium and stimulated with novel compounds at 10μM. After 2 hours of treatment cells were harvested by centrifugation and cell pellets were lysed in RIPA buffer (20mM Tris-Cl, 150mM NaCl, 0.5mM EDTA, 1% NP40, 0.05% SDS) containing 1x phosphatase inhibitor cocktail 3 (Sigma) and 1x protease inhibitor (Roche) to extract the soluble fraction of protein. 10 μg of extracted protein was electrophoresed in 10% SDS-PAGE gels and transferred onto Immobilon-P membranes (Millipore). […] Anti-rabbit HRP label secondary antibody (Abcam) and Clarity Max™ western ECL substrate (Biorad—cat# 1705062) were used for visualization of bands using a BioRad XRS plus imager.

[5] = molecular target: T3, STING in human PBMCs (Homo sapiens, UniProt Q86WV6); test: Phosphorylation of STING in human PBMCs; format: cell-based; conditions: multiple donors (S6 Fig)
T3 construct: endogenous in cells; host or cells: human PBMCs, multiple donors
T3 sequence (Q86WV6 whole entry): as the sequence (Q86WV6 whole entry H232R) above, with R232H counted along it

[6] = molecular target: T4, recombinant CTT domain of R232 STING (Homo sapiens, UniProt Q86WV6, H232R); test: In vitro kinase assay, recombinant CTT domain of R232 STING plus recombinant TBK1; format: biochemical; conditions: STING source not stated (S3 Fig)
T4 construct: corresponding to the soluble domain of STING (138 to 379 aa) protein; purchased Cayman Chemicals (STING); Invitrogen (TBK1) 22816 (STING); A31514 (TBK1)
T4 sequence (Q86WV6 138-379 H232R): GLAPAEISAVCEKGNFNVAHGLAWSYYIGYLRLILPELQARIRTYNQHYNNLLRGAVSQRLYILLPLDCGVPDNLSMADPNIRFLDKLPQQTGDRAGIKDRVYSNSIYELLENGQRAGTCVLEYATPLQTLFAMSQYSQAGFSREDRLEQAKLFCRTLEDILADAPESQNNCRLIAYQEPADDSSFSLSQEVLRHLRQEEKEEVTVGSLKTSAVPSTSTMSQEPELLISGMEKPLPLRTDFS
Description: 50ng of recombinant STING protein (Cayman Chemicals Cat# 22816) corresponding to the soluble domain of STING (138 to 379 aa) protein or 1 μl of ER fraction (8mg/ml) containing full length STING from R232.hSTING was incubated with 20 ng of recombinant full length TBK1 protein (Invitrogen, Cat# A31514) in the presence/absence of test compound in 20 μl reaction buffer (50mM Tris-HCl of pH 7.4, 100mM NaCl, 5mM MgCl2, 5mM MnCl2, 10% glycerol, 0.2mM Na3VO4, 20mM β-glycero-PO4, 0.5mM ATP) and 0.01% BSA at 30 °C for 45 min. The reaction was quenched by addition of 2 μl of 10X EDTA to a final concentration of […]. Samples were treated with 4x gel loading dye followed by electrophoresis in 10% SDS-PAGE gels and transferred to Immobilon-P membranes (Millipore). […] Anti-rabbit HRP labelled secondary antibody (Abcam) and Clarity Max™ western ECL substrate (Biorad, Cat# 1705062) were used for visualization of bands using a BioRad XRS plus imager.

[7] = test system: multiple STING variants overexpressed in HEK293T cells; test: Luciferase reporter assay of STING variants overexpressed in HEK293T cells (Compound 8); format: cell-based, human; conditions: HEK293T cells (S4 Fig)
Excerpt: as §1, with “HEK293T cells stably expressing N-His R232.hSTING were generated by the following described method. N-His R232.hSTING.pcDNA Myc B plasmid was transfected into HEK293T cells using Lipofectamine reagent (Invitrogen) and the transfected cells were selected under Hygromycin. Stably STING expressing HEK293T cells thus selected were further subjected to single cell clonal selection using the limiting dilution method to obtain a clonally pure population of HEK293T cells expressing the human R232 STING variant.” left out
5 x 10^5 clonally selected HEK293T-hSTING-Luciferase cells or control HEK293T-Luciferase cells were seeded in 384-well plates in growth medium and stimulated with known STING agonists or novel compounds. Supernatants were removed after 20 hours of treatment and secretory reporter gene activity was measured using the Quanti-Luc detection system (Invivogen) on a Spectramax i3X luminometer.

[8] = molecular target: T5, STING in human tumor lines (Homo sapiens, UniProt Q86WV6); test: Phosphorylation of STING in human tumor lines; format: cell-based; conditions: S7 Fig
T5 construct: endogenous in cells
T5 sequence (Q86WV6 whole entry): as the sequence (Q86WV6 whole entry H232R) above, with R232H counted along it

Structure (SMILES) | EC50 [1] [µM] | activity against R232 STING, in words [1] | activation of THP1 cells, in words [2] | EC50 [2] [µM] | further results
O=C(NCc1ccco1)c1ccc2c(c1)N(Cc1c(F)cccc1F)C(=O)CS2 [Compound 2, 4-(2,6-Difluorobenzyl)-N-(furan-2-ylmethyl)-3-oxo-3,4-dihydro-2H-benzo[b][1,4]thiazine-6-carboxamide] | 3.97 |  |  |  | THP-1 EC50 [2]: Nil @ 30uM
Cc1ccc2c(=O)c3cccc(CC(=O)O)c3oc2c1C [DMXAA, 5,6 dimethyl xanthenone 4-acetic acid] |  |  |  |  | activation of human STING variants [3]: does not activate
O=C(NCc1ccc(F)cc1F)c1ccc2c(c1)N(Cc1c(F)cccc1Cl)C(=O)CS2 [Compound 4, 4-(2-Chloro-6-fluorobenzyl)-N-(2,4-difluorobenzyl)-3-oxo-3,4-dihydro-2H-benzo[b][1,4]thiazine-6-carboxamide] | 0.292 |  | very weak activation | > 30 | 
O=C(NCc1c(F)cc(F)cc1F)c1ccc2c(c1)N(Cc1c(F)cccc1Cl)C(=O)CS2 [Compound 5, 4-(2-Chloro-6-fluorobenzyl)-3-oxo-N-(2,4,6-trifluorobenzyl)-3,4-dihydro-2H-benzo[b][1,4]thiazine-6-carboxamide] | 0.188 |  | very weak activation | > 10 | 
O=C(NCc1ccco1)c1ccc2c(c1)N(Cc1ccccc1)C(=O)CS2 [Compound 3, 1-Benzyl-N-(furan-2-ylmethyl)-2-oxo-2,3-dihydro-1H-benzo[b][1,4]thiazine-7-carboxamide] | 9.13 |  |  |  | THP-1 EC50 [2]: Nil @ 30uM
O=C(NCc1ccco1)c1ccc2c(c1)N(Cc1c(Cl)cccc1Cl)C(=O)CS2 [Compound 1, 4-(2,6-Dichlorobenzyl)-N-(furan-2-ylmethyl)-3-oxo-3,4-dihydro-2H-benzo[b][1,4]thiazine-6-carboxamide] | 2.16 |  |  |  | THP-1 EC50 [2]: Nil @ 30uM

Further lines, with some results ahead:

EC50 [1] [µM] | activity against R232 STING, in words [1] | activation of THP1 cells, in words [2] | EC50 [2] [µM] | Structure (SMILES) | further results
0.096 | sub-micromolar activity | sub-micromolar activity | 0.412 | CC1Sc2ccc(C(=O)NCc3c(F)cc(F)cc3F)cc2N(Cc2c(F)ccc(O)c2Cl)C1=O (stereo not shown) [Compound 9, 4-(2-Chloro-6-fluoro-3-hydroxybenzyl)-2-methyl-3-oxo-N-(2,4,6-trifluorobenzyl)-3,4-dihydro-2H-benzo[b][1,4]thiazine-6-carboxamide] | 
0.122 | sub-micromolar activity | sub-micromolar activity | 0.944 | CC1Sc2ccc(C(=O)NCc3c(F)cc(F)cc3F)cc2N(Cc2c(F)cccc2Cl)C1=O (stereo not shown) [Compound 8, 4-(2-Chloro-6-fluorobenzyl)-2-methyl-3-oxo-N-(2,4,6-trifluorobenzyl)-3,4-dihydro-2H-benzo[b][1,4]thiazine-6-carboxamide] | phosphorylation of human STING variants [4]: phosphorylated; phosphorylation of STING in human PBMCs [5]: phosphorylated STING; activity in the cell-free pSTING assay [6]: confirmed activity; activation of multiple STING variants, luciferase reporter assay [7]: activated; phosphorylation of STING in human tumor lines [8]: phosphorylated STING
0.091 |  |  | ~8 | CC1Sc2ncc(C(=O)NCc3cc4ccccc4o3)cc2N(Cc2cc(F)cc(F)c2)C1=O (stereo not shown) [Compound 12, N-(Benzofuran-2-ylmethyl)-1-(3,5-difluorobenzyl)-3-methyl-2-oxo-2,3-dihydro-1H-pyrido[2,3-b][1,4]thiazine-7-carboxamide] | 
0.16 | sharp increases in activity |  | > 10 | COc1cc(F)c(CN2C(=O)CSc3ccc(C(=O)NCc4c(F)cc(F)cc4F)cc32)c(F)c1 [Compound 6, 4-(2,6-Difluoro-4-methoxybenzyl)-3-oxo-N-(2,4,6-trifluorobenzyl)-3,4-dihydro-2H-benzo[b][1,4]thiazine-6-carboxamide] | 
0.0716 | sharp increases in activity | significant activity | 1.38 | O=C(NCc1c(F)cc(F)cc1F)c1ccc2c(c1)N(Cc1c(F)cc(O)cc1F)C(=O)CS2 [Compound 7, 4-(2,6-Difluoro-4-hydroxybenzyl)-3-oxo-N-(2,4,6-trifluorobenzyl)-3,4-dihydro-2H-benzo[b][1,4]thiazine-6-carboxamide] | 
0.421 |  |  | ~6 | CC1Sc2ccc(C(=O)NCc3c(F)cc(F)cc3F)cc2N(Cc2cc(F)cc(F)c2)C1=O (stereo not shown) [Compound 10] | 
